Laboratory results published in the NIST ThermoML archive (doi:10.1016/j.jct.2011.06.002).
± gives the expanded uncertainty stated by the source.

Conditions: for viscosity: 101.33 kPa, Liquid, Falling or rolling sphere viscometry

viscosity (348.15 K): 108.86 ± 3.6 mPa·s | viscosity (351.15 K): 92.99 ± 2.8 mPa·s | viscosity (353.15 K): 84.17 ± 2.3 mPa·s | viscosity (358.15 K): 66.28 ± 1.6 mPa·s | Normal melting temperature (Crystal, DTA): 74.16 ± 2 °C
Structure (SMILES): Cl.Cn1ccnc1 [1-methylimidazolium chloride]
